Data taken from patent publication US20030104507A1, “Method for detection of ATP” (priority 2001, published 2003).

Tested on: ATPase activity endogenous to L929 cell lysate
Assay: Detergent inhibition of ATPase endogenous to L929 cell lysate (ATP remaining by luciferase luminescence, 22° C.)
Format: biochemical
Design: key to Relative ATPase Activity, slope det/slope lysate: slope with detergent / slope without; ≥1.0 = 100% activity, 0.5 = 50%
Experimental: Three separate detergents in each of four detergent classes were tested: anionic [SDS (Sodium dodecyl sulfate), Bioterge (an α olefin sulfate), and sodium deoxycholate], nonionic [TRITON X-100, BigCHAP (N,N-bis(3-D-Gluconamidopropyl)cholamide) and THESIT (polyethylene glycol 400 dodecyl ether, Fluka, #88315)], cationic [BDDABr (Benzyldimethyldodecylammonium bromide), CTAB (Cetyltrimethylammonium bromide), and DTAB (dodecyltrimethylammonium bromide)] and zwitterionic [CHAPS (3[(3-Cholamidopropyl)dimethylammonio]propanesulfonic acid), CHAPSO (3-([3-Cholamidopropyl]dimethylammonio)-2-hydroxy-1-propanesulfonate), and Sulfobetaine 3-10 ([…]-N,N-dimethyl-3-ammonio-1-propanesulfonate)]. Detergents were obtained from Sigma, Fluka and Aldrich.
L929 cells (ATCC CCL-1; 1.5×10^5 cells/ml) in F12/DMEM (Hyclone, SH30023) containing 10% horse serum (Hyclone, SH30074) were frozen and thawed for four cycles to create a cell lysate. Then 50 μl of stock detergent solutions [10%, 5.0%, 1.0%, and 0.5% (w/v)] were separately added to 450 μl cell lysate, creating a final detergent concentration in the cell lysate sample of 1.0%, 0.5%, 0.1%, and 0.05%, respectively (these percentage values are those used in Tables D and E herein below). Control samples contained either lysate only or 1.0 μM ATP in 15 mM HEPES buffer (pH 7.5). All samples were incubated at 22° C. (room temperature) for the duration of the experiment.
At various timepoints, 20 μl from each sample/detergent mixture was added to a 96-well luminometer plate in triplicate, and then 100 μl of a solution (“luciferase-luciferin” or “L/L reagent”) containing 25 mM HEPES buffer (pH 7.5), 40 μg luciferase enzyme LucPpe2m146 (Promega, E140), 100 μM luciferin (Promega), and 10 mM MgSO4 was added to each well. The L/L reagent was stored at 4° C. for the duration of the experiment and then allowed to reach ambient temperature just before assaying. After mixing the contents of the plate, light output was measured with a Dynex MLX microtiter plate luminometer (Chantilly, Va.), 0.5 second reads per well with the first measurement taken five minutes after the detergent solution was combined with the sample. The average relative light units and the timepoint at which it was measured (rlu; Table D) and percent of remaining luciferase activity at the timepoint (Table E) are reported; controls were run with each set of experimental conditions as indicated. The cationic and anionic detergents were assayed on one day with one set of controls. The zwitterionic and nonionic detergents were assayed on a separate day with a separate set of controls. The DTAB at 0.5% was assayed on both days (1 and 2).
The experiment was performed as detailed in Example 1. The average relative light unit values and the percent of ATP remaining values are listed below in Table F and G respectively.
The log of the percent of ATP remaining after original timepoint values from Table E and Table G were plotted on the y axis against time (in minutes) on the x axis. The slope of the line generated by these values in the presence of detergent was divided by the slope of the line generated by the values in the absence of detergent (lysate control) resulting in the Relative ATPase Activity values listed below in Table H.
A relative activity value of 1.0 or greater indicates 100% cellular ATPase activity at the concentration of detergent tested. A relative activity value of 0.5 indicates a two-fold (or 50%) decrease in the level of cellular ATPase activity at the concentration of detergent tested when compared to the ATPase activity level in the absence of the detergent. A relative activity value of 0.2 indicates a five-fold (or 80%) decrease in the level of cellular ATPase activity at the concentration of detergent tested when compared to the ATPase activity level in the absence of the detergent.

C[C@H](CCC(=O)N(CCCNC(=O)[C@H](O)[C@@H](O)[C@H](O)[C@H](O)CO)CCCNC(=O)[C@H](O)[C@@H](O)[C@H](O)[C@H](O)CO)[C@H]1CC[C@H]2[C@@H]3[C@H](O)C[C@@H]4C[C@H](O)CC[C@]4(C)[C@H]3C[C@H](O)[C@]12C [BIGCHAP, N,N-bis(3-D-Gluconamidopropyl)cholamide]
Average Relative Light Unit Values (0.05% detergent, 5 min): 6410.42 rlu
Percent ATP Remaining (0.05% detergent, 5 min): 100%
Average Relative Light Unit Values (0.05% detergent, 75 min): 2260.45 rlu
Percent ATP Remaining (0.05% detergent, 75 min): 35.3%
Average Relative Light Unit Values (0.05% detergent, 169 min): 1036.69 rlu
Percent ATP Remaining (0.05% detergent, 169 min): 16.2%
Average Relative Light Unit Values (0.05% detergent, 222 min): 487.72 rlu
Percent ATP Remaining (0.05% detergent, 222 min): 7.6%
Average Relative Light Unit Values (0.05% detergent, 260 min): 238.44 rlu
Percent ATP Remaining (0.05% detergent, 260 min): 3.7%
Relative ATPase Activity, slope det/slope lysate (0.05 percent detergent): 1.069
Slope (log percent ATP remaining vs time in minutes) (0.05 percent detergent): −0.0056
Average Relative Light Unit Values (0.1% detergent, 5 min): 6607.01 rlu
Percent ATP Remaining (0.1% detergent, 5 min): 100%
Average Relative Light Unit Values (0.1% detergent, 75 min): 2087.01 rlu
Percent ATP Remaining (0.1% detergent, 75 min): 31.6%
Average Relative Light Unit Values (0.1% detergent, 169 min): 1363.07 rlu
Percent ATP Remaining (0.1% detergent, 169 min): 20.6%
Average Relative Light Unit Values (0.1% detergent, 222 min): 634.92 rlu
Percent ATP Remaining (0.1% detergent, 222 min): 9.6%
Average Relative Light Unit Values (0.1% detergent, 260 min): 301.55 rlu
Percent ATP Remaining (0.1% detergent, 260 min): 4.6%
Relative ATPase Activity, slope det/slope lysate (0.10 percent detergent): 0.968
Slope (log percent ATP remaining vs time in minutes) (0.10 percent detergent): −0.0051
Average Relative Light Unit Values (0.5% detergent, 5 min): 7438.53 rlu
Percent ATP Remaining (0.5% detergent, 5 min): 100%
Average Relative Light Unit Values (0.5% detergent, 75 min): 3618.22 rlu
Percent ATP Remaining (0.5% detergent, 75 min): 48.6%
Average Relative Light Unit Values (0.5% detergent, 169 min): 2092.69 rlu
Percent ATP Remaining (0.5% detergent, 169 min): 28.1%
Average Relative Light Unit Values (0.5% detergent, 222 min): 1144.80 rlu
Percent ATP Remaining (0.5% detergent, 222 min): 15.4%
Average Relative Light Unit Values (0.5% detergent, 260 min): 677.61 rlu
Percent ATP Remaining (0.5% detergent, 260 min): 9.1%
Relative ATPase Activity, slope det/slope lysate (0.50 percent detergent): 0.782
Slope (log percent ATP remaining vs time in minutes) (0.50 percent detergent): −0.0041
Average Relative Light Unit Values (1.0% detergent, 5 min): 7576.05 rlu
Percent ATP Remaining (1.0% detergent, 5 min): 100%
Average Relative Light Unit Values (1.0% detergent, 75 min): 4043.35 rlu
Percent ATP Remaining (1.0% detergent, 75 min): 53.4%
Average Relative Light Unit Values (1.0% detergent, 169 min): 2474.59 rlu
Percent ATP Remaining (1.0% detergent, 169 min): 32.7%
Average Relative Light Unit Values (1.0% detergent, 222 min): 1374.29 rlu
Percent ATP Remaining (1.0% detergent, 222 min): 18.1%
Average Relative Light Unit Values (1.0% detergent, 260 min): 822.65 rlu
Percent ATP Remaining (1.0% detergent, 260 min): 10.9%
Relative ATPase Activity, slope det/slope lysate (1.00 percent detergent): 0.725
Slope (log percent ATP remaining vs time in minutes) (1.00 percent detergent): −0.0038

C[C@H](CCC(=O)NCCC[N+](C)(C)CCCS(=O)(=O)[O-])[C@H]1CC[C@H]2[C@@H]3[C@H](O)C[C@@H]4C[C@H](O)CC[C@]4(C)[C@H]3C[C@H](O)[C@]12C [CHAPS, 3[(3-Cholamidopropyl)dimethylammonio]propanesulfonic acid]
Average Relative Light Unit Values (0.05% detergent, 5 min): 6356.62 rlu
Percent ATP Remaining (0.05% detergent, 5 min): 100%
Average Relative Light Unit Values (0.05% detergent, 75 min): 2305.56 rlu
Percent ATP Remaining (0.05% detergent, 75 min): 36.3%
Average Relative Light Unit Values (0.05% detergent, 169 min): 1143.02 rlu
Percent ATP Remaining (0.05% detergent, 169 min): 18.0%
Average Relative Light Unit Values (0.05% detergent, 222 min): 500.80 rlu
Percent ATP Remaining (0.05% detergent, 222 min): 7.9%
Average Relative Light Unit Values (0.05% detergent, 260 min): 240.81 rlu
Percent ATP Remaining (0.05% detergent, 260 min): 3.8%
Relative ATPase Activity, slope det/slope lysate (0.05 percent detergent): 1.061
Slope (log percent ATP remaining vs time in minutes) (0.05 percent detergent): −0.0056
Average Relative Light Unit Values (0.1% detergent, 5 min): 6515.77 rlu
Percent ATP Remaining (0.1% detergent, 5 min): 100%
Average Relative Light Unit Values (0.1% detergent, 75 min): 2583.65 rlu
Percent ATP Remaining (0.1% detergent, 75 min): 39.7%
Average Relative Light Unit Values (0.1% detergent, 169 min): 1236.53 rlu
Percent ATP Remaining (0.1% detergent, 169 min): 19.0%
Average Relative Light Unit Values (0.1% detergent, 222 min): 448.96 rlu
Percent ATP Remaining (0.1% detergent, 222 min): 8.6%
Average Relative Light Unit Values (0.1% detergent, 260 min): 284.18 rlu
Percent ATP Remaining (0.1% detergent, 260 min): 4.4%
Relative ATPase Activity, slope det/slope lysate (0.10 percent detergent): 1.023
Slope (log percent ATP remaining vs time in minutes) (0.10 percent detergent): −0.0054
Average Relative Light Unit Values (0.5% detergent, 5 min): 7368.91 rlu
Percent ATP Remaining (0.5% detergent, 5 min): 100%
Average Relative Light Unit Values (0.5% detergent, 75 min): 4048.24 rlu
Percent ATP Remaining (0.5% detergent, 75 min): 54.9%
Average Relative Light Unit Values (0.5% detergent, 169 min): 2548.39 rlu
Percent ATP Remaining (0.5% detergent, 169 min): 34.6%
Average Relative Light Unit Values (0.5% detergent, 222 min): 1438.57 rlu
Percent ATP Remaining (0.5% detergent, 222 min): 19.5%
Average Relative Light Unit Values (0.5% detergent, 260 min): 909.15 rlu
Percent ATP Remaining (0.5% detergent, 260 min): 12.3%
Relative ATPase Activity, slope det/slope lysate (0.50 percent detergent): 0.688
Slope (log percent ATP remaining vs time in minutes) (0.50 percent detergent): −0.0036
Average Relative Light Unit Values (1.0% detergent, 5 min): 7241.33 rlu
Percent ATP Remaining (1.0% detergent, 5 min): 100%
Average Relative Light Unit Values (1.0% detergent, 75 min): 3816.06 rlu
Percent ATP Remaining (1.0% detergent, 75 min): 52.7%
Average Relative Light Unit Values (1.0% detergent, 169 min): 2348.28 rlu
Percent ATP Remaining (1.0% detergent, 169 min): 32.4%
Average Relative Light Unit Values (1.0% detergent, 222 min): 1322.30 rlu
Percent ATP Remaining (1.0% detergent, 222 min): 18.3%
Average Relative Light Unit Values (1.0% detergent, 260 min): 809.22 rlu
Percent ATP Remaining (1.0% detergent, 260 min): 11.2%
Relative ATPase Activity, slope det/slope lysate (1.00 percent detergent): 0.715
Slope (log percent ATP remaining vs time in minutes) (1.00 percent detergent): −0.0038
